{
  "source": "ChEMBL document CHEMBL5625183",
  "about": "“Discovery of a novel dual-target inhibitor of CDK12 and PARP1 that induces synthetic lethality for treatment of triple-negative breast cancer” (Eur J Med Chem, 2023)",
  "key": {"[1]": {"test": "Toxicity in BALB/c mouse xenografted with human MDA-MB-231 cells assessed as morphological changes in heart at 20 to 80 mg/kg, ip administered once daily for 16 days by H and E staining based analysis", "type": "organism-based", "details": "in vivo, 384 h, dose 20-80 mg/kg, time 16 day"}, "MDA-MB-436 [2]": {"test_system": "MDA-MB-436", "test": "Antiproliferative activity against human MDA-MB-436 cells assessed as inhibition of cell growth incubated for 24 hrs by MTT assay", "type": "functional, cell-based", "details": "Homo sapiens, MDA-MB-436, 24 h"}, "[3]": {"molecular_target": "Poly [ADP-ribose] polymerase 1 (Homo sapiens, UniProt P09874)", "sequence (P09874 whole entry)": "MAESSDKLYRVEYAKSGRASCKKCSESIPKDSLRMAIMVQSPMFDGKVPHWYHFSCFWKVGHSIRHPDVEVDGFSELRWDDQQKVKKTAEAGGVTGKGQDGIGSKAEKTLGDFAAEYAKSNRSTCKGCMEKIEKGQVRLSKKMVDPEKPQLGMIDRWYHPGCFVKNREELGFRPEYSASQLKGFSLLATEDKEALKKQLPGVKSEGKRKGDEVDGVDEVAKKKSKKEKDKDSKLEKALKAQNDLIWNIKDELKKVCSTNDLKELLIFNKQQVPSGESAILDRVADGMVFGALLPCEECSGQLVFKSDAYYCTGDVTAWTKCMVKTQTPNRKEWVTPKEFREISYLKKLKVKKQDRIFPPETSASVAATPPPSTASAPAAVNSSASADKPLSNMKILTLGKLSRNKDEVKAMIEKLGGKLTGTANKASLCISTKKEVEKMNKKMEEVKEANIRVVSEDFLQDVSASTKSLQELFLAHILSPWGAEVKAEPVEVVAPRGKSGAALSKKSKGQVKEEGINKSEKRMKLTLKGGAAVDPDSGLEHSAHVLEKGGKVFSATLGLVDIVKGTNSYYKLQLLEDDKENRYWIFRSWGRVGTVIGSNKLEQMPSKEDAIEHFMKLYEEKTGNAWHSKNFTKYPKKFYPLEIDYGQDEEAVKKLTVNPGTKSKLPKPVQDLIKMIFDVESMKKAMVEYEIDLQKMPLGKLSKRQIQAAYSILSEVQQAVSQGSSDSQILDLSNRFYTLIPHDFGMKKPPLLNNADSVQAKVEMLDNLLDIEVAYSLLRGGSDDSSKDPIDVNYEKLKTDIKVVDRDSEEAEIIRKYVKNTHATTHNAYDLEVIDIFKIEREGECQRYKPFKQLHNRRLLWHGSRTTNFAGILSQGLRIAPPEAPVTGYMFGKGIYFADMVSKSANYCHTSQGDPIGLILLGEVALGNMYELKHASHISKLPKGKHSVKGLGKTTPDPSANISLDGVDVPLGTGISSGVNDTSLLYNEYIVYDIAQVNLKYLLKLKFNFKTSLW", "test": "Inhibition of PARP1 (unknown origin) incubated for 1 hr by ELISA analysis"}, "[4]": {"test": "Metabolic stability in human liver microsome assessed as half life in presence of NADPH incubated upto 60 mins by LC-MS/MS analysis", "type": "ADME", "details": "liver microsomes"}, "[5]": {"test": "Cmax in Sprague-Dawley rat at 1 mg/kg, iv measured upto 24 hrs by LC-MS/MS analysis", "type": "ADME, organism-based", "details": "in vivo"}, "[6]": {"test": "AUC (0 to infinity) in Sprague-Dawley rat at 1 mg/kg, iv measured upto 24 hrs by LC-MS/MS analysis", "type": "ADME, organism-based", "details": "in vivo"}, "[7]": {"test": "Apparent volume of distribution in Sprague-Dawley rat at 1 mg/kg, iv measured upto 24 hrs by LC-MS/MS analysis", "type": "ADME, organism-based", "details": "in vivo, read-out: Vz"}, "[8]": {"molecular_target": "T1, Dual specificity tyrosine-phosphorylation-regulated kinase 2 (Homo sapiens) (UniProt Q92630)", "T1 sequence (whole entry)": "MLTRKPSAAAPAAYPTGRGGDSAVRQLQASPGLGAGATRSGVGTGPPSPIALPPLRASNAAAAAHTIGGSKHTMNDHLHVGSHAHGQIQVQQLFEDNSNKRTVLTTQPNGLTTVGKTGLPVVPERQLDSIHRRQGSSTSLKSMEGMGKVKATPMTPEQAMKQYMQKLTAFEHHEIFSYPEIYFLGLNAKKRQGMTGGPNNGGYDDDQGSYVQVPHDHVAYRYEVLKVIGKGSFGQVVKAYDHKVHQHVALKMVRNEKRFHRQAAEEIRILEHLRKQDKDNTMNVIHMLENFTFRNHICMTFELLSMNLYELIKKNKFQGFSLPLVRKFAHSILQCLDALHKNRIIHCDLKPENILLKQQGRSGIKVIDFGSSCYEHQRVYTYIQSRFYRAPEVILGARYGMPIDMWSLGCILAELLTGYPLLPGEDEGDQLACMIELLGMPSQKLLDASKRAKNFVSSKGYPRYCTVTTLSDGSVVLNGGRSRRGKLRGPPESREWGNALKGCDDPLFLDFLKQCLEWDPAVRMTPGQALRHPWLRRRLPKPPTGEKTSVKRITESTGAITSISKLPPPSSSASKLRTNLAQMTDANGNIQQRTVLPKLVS", "test": "Inhibition of DYRK2 (unknown origin) at 1 uM relative to control"}, "[9]": {"molecular_target": "Dual specificity protein kinase CLK1 (Homo sapiens) (UniProt P49759)", "sequence (P49759 whole entry, looked up)": "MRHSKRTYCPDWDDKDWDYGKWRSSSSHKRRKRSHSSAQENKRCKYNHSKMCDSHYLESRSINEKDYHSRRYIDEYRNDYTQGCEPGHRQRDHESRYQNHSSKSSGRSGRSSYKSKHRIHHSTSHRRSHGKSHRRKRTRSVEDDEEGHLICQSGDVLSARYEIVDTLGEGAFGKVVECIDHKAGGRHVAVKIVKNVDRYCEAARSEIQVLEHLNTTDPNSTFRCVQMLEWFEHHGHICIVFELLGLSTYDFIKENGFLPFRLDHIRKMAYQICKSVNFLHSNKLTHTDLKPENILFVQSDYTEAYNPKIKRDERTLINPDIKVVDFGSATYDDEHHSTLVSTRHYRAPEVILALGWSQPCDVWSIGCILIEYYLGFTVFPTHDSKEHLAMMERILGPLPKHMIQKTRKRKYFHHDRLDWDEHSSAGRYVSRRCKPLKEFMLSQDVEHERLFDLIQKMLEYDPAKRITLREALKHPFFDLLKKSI", "test": "Inhibition of CLK1 (unknown origin) at 1 uM relative to control"}, "[10]": {"molecular_target": "AP2-associated protein kinase 1 (Homo sapiens) (UniProt Q2M2I8)", "sequence (Q2M2I8 whole entry, looked up)": "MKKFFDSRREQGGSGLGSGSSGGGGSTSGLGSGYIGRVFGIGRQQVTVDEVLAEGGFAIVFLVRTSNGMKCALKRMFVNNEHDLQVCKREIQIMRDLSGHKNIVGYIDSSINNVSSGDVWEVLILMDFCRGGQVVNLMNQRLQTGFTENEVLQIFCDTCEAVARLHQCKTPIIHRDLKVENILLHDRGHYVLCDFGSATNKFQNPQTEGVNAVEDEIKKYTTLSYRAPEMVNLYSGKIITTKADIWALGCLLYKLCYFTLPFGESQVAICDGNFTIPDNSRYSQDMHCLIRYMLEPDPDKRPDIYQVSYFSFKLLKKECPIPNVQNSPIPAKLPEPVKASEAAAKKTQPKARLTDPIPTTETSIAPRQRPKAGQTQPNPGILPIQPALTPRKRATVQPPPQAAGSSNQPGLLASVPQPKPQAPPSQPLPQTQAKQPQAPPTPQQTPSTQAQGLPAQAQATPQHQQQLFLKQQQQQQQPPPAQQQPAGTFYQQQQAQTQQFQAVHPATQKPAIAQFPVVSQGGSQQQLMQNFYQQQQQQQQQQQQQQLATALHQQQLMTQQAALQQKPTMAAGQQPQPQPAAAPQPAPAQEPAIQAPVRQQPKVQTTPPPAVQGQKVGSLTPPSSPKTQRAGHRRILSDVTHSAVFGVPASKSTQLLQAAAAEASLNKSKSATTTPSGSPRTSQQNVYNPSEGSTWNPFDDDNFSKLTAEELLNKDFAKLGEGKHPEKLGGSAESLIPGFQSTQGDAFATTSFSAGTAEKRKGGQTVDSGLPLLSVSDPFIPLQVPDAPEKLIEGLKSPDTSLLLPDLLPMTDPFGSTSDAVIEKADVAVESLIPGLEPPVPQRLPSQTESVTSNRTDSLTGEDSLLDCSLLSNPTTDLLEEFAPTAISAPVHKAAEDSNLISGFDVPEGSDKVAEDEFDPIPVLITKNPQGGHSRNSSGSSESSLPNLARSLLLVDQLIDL", "test": "Inhibition of AAK1 (unknown origin) at 1 uM relative to control"}, "[11]": {"molecular_target": "Cyclin-dependent kinase 5 (Homo sapiens, UniProt Q00535)", "sequence (Q00535 whole entry)": "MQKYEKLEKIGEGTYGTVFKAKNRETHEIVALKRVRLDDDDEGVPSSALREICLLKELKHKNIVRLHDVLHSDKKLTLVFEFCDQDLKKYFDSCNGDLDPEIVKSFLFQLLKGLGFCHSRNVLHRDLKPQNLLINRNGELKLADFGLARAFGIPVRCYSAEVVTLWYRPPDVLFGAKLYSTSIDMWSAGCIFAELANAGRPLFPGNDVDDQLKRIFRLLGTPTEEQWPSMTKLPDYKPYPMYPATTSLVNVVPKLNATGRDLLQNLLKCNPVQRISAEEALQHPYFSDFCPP", "test": "Inhibition of CDK5 (unknown origin)"}, "[12]": {"molecular_target": "T2, Cyclin-dependent kinase 12 (Homo sapiens, UniProt Q9NYV4)", "T2 sequence (Q9NYV4 whole entry, looked up)": "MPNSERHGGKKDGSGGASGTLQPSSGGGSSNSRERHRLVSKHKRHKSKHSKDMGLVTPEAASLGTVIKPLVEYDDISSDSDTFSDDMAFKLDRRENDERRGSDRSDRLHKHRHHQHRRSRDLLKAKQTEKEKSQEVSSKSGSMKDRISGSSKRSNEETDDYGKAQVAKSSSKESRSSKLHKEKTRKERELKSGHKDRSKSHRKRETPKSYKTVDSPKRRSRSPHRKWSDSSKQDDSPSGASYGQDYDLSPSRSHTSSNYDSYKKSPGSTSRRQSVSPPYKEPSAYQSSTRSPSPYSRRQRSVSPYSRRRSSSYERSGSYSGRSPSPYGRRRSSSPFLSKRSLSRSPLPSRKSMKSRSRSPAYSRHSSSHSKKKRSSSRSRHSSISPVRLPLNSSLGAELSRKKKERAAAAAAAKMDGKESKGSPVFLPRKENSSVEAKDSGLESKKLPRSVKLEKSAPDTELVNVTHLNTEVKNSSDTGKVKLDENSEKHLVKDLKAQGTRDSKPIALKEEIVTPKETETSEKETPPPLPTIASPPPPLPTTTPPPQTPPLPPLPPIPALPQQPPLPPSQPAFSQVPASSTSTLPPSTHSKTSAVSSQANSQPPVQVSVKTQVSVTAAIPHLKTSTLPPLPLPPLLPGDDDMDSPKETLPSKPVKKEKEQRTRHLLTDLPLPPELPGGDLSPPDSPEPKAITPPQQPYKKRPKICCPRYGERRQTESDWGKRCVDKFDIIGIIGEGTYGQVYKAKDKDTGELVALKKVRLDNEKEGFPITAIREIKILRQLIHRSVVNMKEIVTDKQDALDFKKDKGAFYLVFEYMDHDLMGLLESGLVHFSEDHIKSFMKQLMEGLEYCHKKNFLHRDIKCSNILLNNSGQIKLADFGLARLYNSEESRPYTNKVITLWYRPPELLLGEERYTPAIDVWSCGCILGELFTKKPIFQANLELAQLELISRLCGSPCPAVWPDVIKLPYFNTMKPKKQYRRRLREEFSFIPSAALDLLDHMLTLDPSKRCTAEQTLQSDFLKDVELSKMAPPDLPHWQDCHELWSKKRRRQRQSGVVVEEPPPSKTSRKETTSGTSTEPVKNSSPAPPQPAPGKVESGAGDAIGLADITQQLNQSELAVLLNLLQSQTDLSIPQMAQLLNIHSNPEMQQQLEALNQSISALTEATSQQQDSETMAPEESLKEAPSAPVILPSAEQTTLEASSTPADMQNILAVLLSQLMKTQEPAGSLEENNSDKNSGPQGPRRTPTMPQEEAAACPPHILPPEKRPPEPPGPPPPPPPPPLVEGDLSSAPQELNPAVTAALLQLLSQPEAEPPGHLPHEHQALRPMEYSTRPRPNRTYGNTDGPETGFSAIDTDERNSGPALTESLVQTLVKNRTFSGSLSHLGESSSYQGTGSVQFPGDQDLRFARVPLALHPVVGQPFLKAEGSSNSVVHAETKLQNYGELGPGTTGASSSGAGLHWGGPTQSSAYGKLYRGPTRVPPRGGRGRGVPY", "test": "Inhibition of CDK12 in human MDA-MB-231 cells assessed as effect on Pol II CTD at ser5 residue phosphorylation incubated for 24 hrs", "type": "cell-based", "details": "dose 5-20 µM"}, "[13]": {"molecular_target": "T2, Cyclin-dependent kinase 12", "test": "Inhibition of CDK12 in human MDA-MB-231 cells assessed as effect on Pol II CTD at ser7 residue phosphorylation incubated for 24 hrs", "type": "cell-based", "details": "dose 5-20 µM"}, "MDA-MB-231 [14]": {"test_system": "MDA-MB-231", "test": "Antiproliferative activity against human MDA-MB-231 cells transfected with wild type PARP1 and CDK12 M816A mutant incubated for 24 hrs by MTT assay", "type": "functional, cell-based"}, "MDA-MB-468 [15]": {"test_system": "MDA-MB-468", "test": "[…] DNA repair in human MDA-MB-468 cells assessed as decrease in RAD51 level at 10 uM incubated for 24 hrs by confocal laser scanning microscopic analysis", "type": "functional, cell-based"}, "MDA-MB-231 [16]": {"test_system": "MDA-MB-231", "test": "Induction of cell cycle arrest in human MDA-MB-231 cells assessed as accumulation of cells at G1 phase at 5 uM measured after 24 hrs by PI staining based cytometry analysis (reference value: 68.55%)", "type": "functional"}, "MDA-MB-231 [17]": {"test_system": "MDA-MB-231", "test": "Induction of cell cycle arrest in human MDA-MB-231 cells assessed as accumulation of cells at G1 phase at 20 uM measured after 24 hrs by PI staining based cytometry analysis (reference value: 68.55%)", "type": "functional"}, "MDA-MB-231 [18]": {"test_system": "MDA-MB-231", "test": "Induction of cell cycle arrest in human MDA-MB-231 cells assessed as accumulation of cells at G2 phase at 20 uM measured after 24 hrs by PI staining based cytometry analysis (reference value: 8.44 %)", "type": "functional"}, "MDA-MB-436 [19]": {"test_system": "MDA-MB-436", "test": "Induction of cell cycle arrest in human MDA-MB-436 cells assessed as accumulation of cells at G2 phase at 5 uM measured after 24 hrs by PI staining based cytometry analysis (reference value: 2.54%)", "type": "functional"}, "MDA-MB-468 [20]": {"test_system": "MDA-MB-468", "test": "Antiproliferative activity against human MDA-MB-468 cells assessed as reduction in EDU-positive cells at 10 uM […]-staining based analysis", "type": "functional, cell-based"}, "MCF-10A": {"test_system": "MCF-10A", "test": "Cytotoxicity against human MCF-10A cells assessed reduction in cell viability incubated for 24 hrs by MTT assay", "type": "toxicity, cell-based"}, "MDA-MB-231 [21]": {"test_system": "MDA-MB-231", "test": "Inhibition of cell migration in human MDA-MB-231 cells assessed as wound closure at 10 uM incubated for 24 hrs by wound healing assay", "type": "functional, cell-based"}, "MDA-MB-468 [22]": {"test_system": "MDA-MB-468", "test": "Inhibition of cell migration in human MDA-MB-468 cells at 10 uM incubated for 24 hrs by transwell assay", "type": "functional, cell-based"}, "MDA-MB-468 [23]": {"test_system": "MDA-MB-468", "test": "Induction of apoptosis in human MDA-MB-468 cells incubated for 24 hrs by Annexin V/PI staining based flow cytometry analysis", "type": "functional, cell-based", "details": "dose 5-20 µM"}, "MDA-MB-231 [24]": {"test_system": "MDA-MB-231", "test": "Induction of apoptosis in human MDA-MB-231 cells assessed as upregulation of cleaved-caspase 3 expression incubated for 24 hrs", "type": "functional, cell-based", "details": "dose 5-20 µM"}, "MDA-MB-231 [25]": {"test_system": "MDA-MB-231", "test": "Induction of apoptosis in human MDA-MB-231 cells assessed as upregulation of Bax expression incubated for 24 hrs", "type": "functional, cell-based", "details": "dose 5-20 µM"}, "MDA-MB-468 [26]": {"test_system": "MDA-MB-468", "test": "Induction of apoptosis in human MDA-MB-468 cells assessed as downregulation of Bcl-2 expression incubated for 24 hrs", "type": "functional, cell-based", "details": "dose 5-20 µM"}, "Mus musculus [27]": {"test_system": "Mus musculus", "test": "In-vivo inhibition of CDK12-PARP1 in BALB/c mouse assessed as downregulation of CTD at Ser2 residue expression in tumor at 20 to 80 mg/kg, ip administered once daily for 16 days by Western blot analysis", "type": "functional, organism-based", "details": "dose 20-80 mg/kg, time 16.0 day"}, "Mus musculus [28]": {"test_system": "Mus musculus", "test": "In-vivo inhibition of CDK12-PARP1 in BALB/c mouse assessed as downregulation of PAR expression in tumor at 20 to 80 mg/kg, ip administered once daily for 16 days by Western blot analysis", "type": "functional, organism-based", "details": "dose 20-80 mg/kg, time 16.0 day"}, "MDA-MB-231 [29]": {"test_system": "MDA-MB-231", "test": "Antitumor activity against human MDA-MB-231 cells xenografted in ip dosed BALB/c mouse assessed as upregulation of E-cadherin level administered once daily for 16 days", "type": "functional, organism-based", "details": "dose 20-80 mg/kg, time 16.0 day"}},
  "note": "Active and inactive are the calls of the source. No cut-off for these calls is given here.",
  "data": [
    {"smiles": "NC(=O)c1cccc2[nH]c(NC(=O)c3cccc(C(=O)N4CCC(Nc5ncc(I)cn5)CC4)c3)nc12", "values": [
      {"measurement": "Activity", "setting": "[1]", "result": "Non-Toxic"},
      {"measurement": "IC50", "setting": "MDA-MB-436 [2]", "result": 9000, "unit": "nM"},
      {"measurement": "IC50", "setting": "[3]", "result": 34, "unit": "nM"},
      {"measurement": "half-life", "setting": "[4]", "result": 3.51, "unit": "h"},
      {"measurement": "Cmax", "setting": "[5]", "result": 2130, "unit": "ng/mL"},
      {"measurement": "AUC(0-inf)", "setting": "[6]", "result": 1340, "unit": "ng·h/mL"},
      {"measurement": "Vd", "setting": "[7]", "result": 3.22, "unit": "L/kg"},
      {"measurement": "inhibition", "setting": "[8]", "result": "> 60", "unit": "%"},
      {"measurement": "inhibition", "setting": "[9]", "result": "> 60", "unit": "%"},
      {"measurement": "inhibition", "setting": "[10]", "result": "> 60", "unit": "%"},
      {"measurement": "IC50", "setting": "[11]", "result": 747, "unit": "nM"},
      {"measurement": "inhibition", "setting": "[12]", "result": "Dose-Dependent Effect"},
      {"measurement": "inhibition", "setting": "[13]", "result": "Dose-Dependent Effect"},
      {"measurement": "Activity", "setting": "MDA-MB-231 [14]", "result": "Active"},
      {"measurement": "Activity", "setting": "MDA-MB-468 [15]", "result": "Active"},
      {"measurement": "Activity", "setting": "MDA-MB-231 [16]", "result": 63.3, "unit": "%"},
      {"measurement": "Activity", "setting": "MDA-MB-231 [17]", "result": 59.26, "unit": "%"},
      {"measurement": "Activity", "setting": "MDA-MB-231 [18]", "result": 23.42, "unit": "%"},
      {"measurement": "Activity", "setting": "MDA-MB-436 [19]", "result": 4.39, "unit": "%"},
      {"measurement": "Activity", "setting": "MDA-MB-468 [20]", "result": "Active"},
      {"measurement": "Activity", "setting": "MCF-10A", "result": "Non-Toxic"},
      {"measurement": "inhibition", "setting": "MDA-MB-231 [21]", "result": "Active"},
      {"measurement": "inhibition", "setting": "MDA-MB-468 [22]", "result": "Active"},
      {"measurement": "Activity", "setting": "MDA-MB-468 [23]", "result": "Dose-Dependent Effect"},
      {"measurement": "Activity", "setting": "MDA-MB-231 [24]", "result": "Dose-Dependent Effect"},
      {"measurement": "Activity", "setting": "MDA-MB-231 [25]", "result": "Dose-Dependent Effect"},
      {"measurement": "Activity", "setting": "MDA-MB-468 [26]", "result": "Dose-Dependent Effect"},
      {"measurement": "inhibition", "setting": "Mus musculus [27]", "result": "Active"},
      {"measurement": "inhibition", "setting": "Mus musculus [28]", "result": "Active"},
      {"measurement": "Activity", "setting": "MDA-MB-231 [29]", "result": "Dose-Dependent Effect"}
    ]}
  ]
}
